Patent US20260286302A1, “METHODS FOR PRODUCING A SUPER CENTRAL MEMORY CD8 T CELL SUBTYPE BY POLY(ADP-RIBOSE) POLYMERASE (PARP) INHIBITION AND USES THEREOF” (Georgetown University, priority 2023, published 2026)

Tests used:
[1] = test system: NAD; assay: NAD accumulation assay; format: cell-based, mouse; conditions: activated pMel-1 CD8 T cells, 48 h
Method: pMel-1 CD8 T cells were activated with gp100 in the presence or absence of PARPi for 48 h. Cells were washed with cold PBS and pelleted in a microcentrifuge tube by centrifuging at 2,000 rpm for 5 minutes. Cells were lysed with 400 μL of NADH/NAD extraction buffer and then centrifuged at 13,000 g for 10 minutes to remove insoluble material. The supernatants were collected and the levels of NAD in the cell lysates were estimated using the NAD/NADH Quantitation Kit according to the manufacturing kit (Millipore NAD/NADH Quantification Kit Sigma #MAK037).

[2] = test system: B16F10 tumors; assay: B16F10 tumor model: tumor growth and survival; format: in vivo, mouse
Method: C57BL/6J mice were injected with 7×10^4 TC-1 cells per mouse or 1×10^5B16F10 cells per mouse in the right flank. Treatment in respective groups was started when tumors reached an average size of approximately 0.075 cm^3. […] Mice were treated daily with IP injection at a dose of 50 mg kg-1.
For vaccination, TC-1-specific E7 peptide (a nine amino acid peptide, […] (SEQ ID NO: 1); 100 μg per mouse per 100 μl; Celtak Bioscience) or B16-specific gp10025-33 nonamer peptide ([…] (SEQ ID NO: 2); 100 μg per mouse per 100 μl; AnaSpec) were used. Both the vaccines were mixed with a small 13-mer nonnatural pan-HLA DR-binding epitope (PADRE (SEQ ID NO: 3); aK-Cha-[…]a (SEQ ID NO: 4), where ‘a’ is d-alanine, and ‘Cha’ is 1-cyclohexylalanine, T helper epitope, 20 μg per mouse; Celtak Bioscience) and QuilA (adjuvant, 10 μg per mouse; Brenntag). For survival and therapy experiments, mice were vaccinated three times, starting at an average tumor size of 0.07 cm^3, while for immune response experiments mice were vaccinated twice with a one-week interval between vaccinations. Tumors were measured every 3-4 days using a digital vernier caliper, and the tumor volume was calculated using the formula: V=L×W2/2000, where V is tumor volume, L is the length of the tumor (longer diameter) and W is the width of the tumor (shorter diameter). Mice were monitored for tumor growth and survival. Mice were euthanized when the tumor volume reached 1.5 cm^3.

[3] = test system: pMel-1 CD8 T cells; assay: Metabolomics and lipidomics of activated CD8 T cells; format: cell-based, mouse; conditions: PARPi-treated vs gp100 activated, 48 h
Method: Targeted metabolomics method, developed in-house, was used to quantitate 270 endogenous metabolites using QTRAP® 7500 LC-MS/MS System (Sciex, MA, USA). For this purpose, 20 μL of PBS was added to the cell pellet and sample tube was plunged into dry ice for 30 seconds and 37° C. water bath for 90 seconds. This cycle was repeated for two more times and then samples were sonicated for 1 minute and 100 μL of extraction buffer (methanol/water 50/50) containing 200 ng/ml of debrisoquine (DBQ) as internal standard for positive mode and 200 ng/mL of 4-nitrobenzoic acid as internal standard for negative mode was added. The samples were vortexed for 1 min and kept on ice for 20 minutes followed by addition of 100 μL of ACN. The samples were incubated at −20° C. for 20 minutes for protein precipitation. The samples were centrifuged at 13,000 rpm for 20 minutes at 4° C. The supernatant was transferred to MS vial for LC-MS analysis. 20 μL of each prepared sample was mixed to generate the pooled QC sample.
Five microliter of the prepared sample was injected onto a Kinetex 2.6 μm polar C18 100 Å 100×3.0 mm (Phenomenex, CA, USA) using SIL-30AC autosampler (Shimadzu) connected with a high flow LC-30AD solvent delivery unit (Shimadzu) and CBM-20A communication bus module (Shimadzu) online with QTRAP 5500 (Sciex, MA, USA) operating in positive and negative ion mode. A binary solvent comprising of water with 0.1% formic acid (solvent A) and acetonitrile with 0.1% formic acid (solvent B) was used. The extracted metabolites were resolved at 0.2 mL/min flow rate. The LC gradient conditions were as follows: Initial—100% A, 0% B for 2.1 minutes; 14 minutes—5% A, 95% B till 15 minutes; 15.1 minutes—100% A, 0% B till 20 minutes. The auto sampler and oven were kept at 15° C. and 30° C., respectively. Source and gas setting for the method were as follow: curtain gas=40, CAD gas=9, ion spray voltage=1700 V in positive mode and ion spray voltage=1600 V in negative mode, temperature=350° C., ion source gas 1=30 and ion source gas 2=50. […]

[4] = test system: SIRT-1/FOXO1; assay: SIRT-1/FOXO1 signaling, Western blot and immunofluorescence; format: cell-based, mouse
Method: pMel-1 CD8 T cells were activated with gp100 in the presence or absence of PARPi for 48 h containing glass coverslips. Cells were then washed with PBS (Mg^+ca^+), fixed for 5 min with 4% PFA and permeabilized in PBS/triton 1×. […] Finally, DAPI staining was applied. Images were acquired with a Leica TCS-SP5II upright confocal microscope (Leica Microsystems).

O=C(c1cc(Cc2n[nH]c(=O)c3ccccc23)ccc1F)N1CCN(C(=O)C2CC2)CC1 [olaparib]
accumulation of NAD [1]: significantly enhanced | tumor growth and survival, enhancement of anti-tumor immune response of the vaccine ([2]; B16F10, PARPi 50 mg/kg IP daily in combination with gp100 vaccine): significantly retarding tumor growth and prolonging survival | mice alive ([2]; B16F10 tumor model, day 22, PARPi added to the vaccine (gp100)): 40% | single agent effect ([2]; B16 model, PARPi alone): no single agent effect | TAGs (lipidomic analysis) [3]: increased level | metabolites related to TCA cycle (fumarate, malate, glutamate, FAD) [3]: significantly increased | top 50 differentially expressed metabolites [3]: increased | FOXO1 acetylation ([4]; PARPi-treated CD8 T cells): decrease | SIRT-1 expression and activity ([4]; activated pMel-1 CD8 T cells): increased | FOXO1 in the nucleus ([4]; immunofluorescence and Western blot, compared to gp100-activated cells): increase in accumulation and expression | FOXO1 phosphorylation ([4]; total lysate): significant reduction
